# Results as given in patent publication US5756666A, “Peptides capable of inducing immune response to HIV” (priority 1993, dated 1998).
# Ends that are not written are not given here.
# Tested on: T2-B * 3501 cells
sequence,measurement,value
TPPLVKLWY [HIV(B35)-16],induction of CTL with specific cytotoxic activity,effective for inducing CTLs capable of damaging the synthetic peptide-binding T2-B * 3501 cells
